In patent publication US20220280644A1, “"TRPswitch" - A STEP FUNCTION CHEMO-OPTOGENETIC LIGAND” (UNIVERSITY OF UTAH RESEARCH FOUNDATION, priority 2019, published 2022):

Legend:
endogenous human TRPA1 = target: T1, endogenous human TRPA1 (Homo sapiens, UniProt O75762); test: Whole cell current in untransfected CCD-18Co cells; format: cell-based; conditions: without expression of zTrpa1b, violet and green light
T1 construct: human colonic fibroblast cells, CCD-18Co, which express human TRPA1 endogenously; endogenous in cells; host or cells: CCD-18Co (ATCC), untransfected
T1 sequence (O75762 whole entry): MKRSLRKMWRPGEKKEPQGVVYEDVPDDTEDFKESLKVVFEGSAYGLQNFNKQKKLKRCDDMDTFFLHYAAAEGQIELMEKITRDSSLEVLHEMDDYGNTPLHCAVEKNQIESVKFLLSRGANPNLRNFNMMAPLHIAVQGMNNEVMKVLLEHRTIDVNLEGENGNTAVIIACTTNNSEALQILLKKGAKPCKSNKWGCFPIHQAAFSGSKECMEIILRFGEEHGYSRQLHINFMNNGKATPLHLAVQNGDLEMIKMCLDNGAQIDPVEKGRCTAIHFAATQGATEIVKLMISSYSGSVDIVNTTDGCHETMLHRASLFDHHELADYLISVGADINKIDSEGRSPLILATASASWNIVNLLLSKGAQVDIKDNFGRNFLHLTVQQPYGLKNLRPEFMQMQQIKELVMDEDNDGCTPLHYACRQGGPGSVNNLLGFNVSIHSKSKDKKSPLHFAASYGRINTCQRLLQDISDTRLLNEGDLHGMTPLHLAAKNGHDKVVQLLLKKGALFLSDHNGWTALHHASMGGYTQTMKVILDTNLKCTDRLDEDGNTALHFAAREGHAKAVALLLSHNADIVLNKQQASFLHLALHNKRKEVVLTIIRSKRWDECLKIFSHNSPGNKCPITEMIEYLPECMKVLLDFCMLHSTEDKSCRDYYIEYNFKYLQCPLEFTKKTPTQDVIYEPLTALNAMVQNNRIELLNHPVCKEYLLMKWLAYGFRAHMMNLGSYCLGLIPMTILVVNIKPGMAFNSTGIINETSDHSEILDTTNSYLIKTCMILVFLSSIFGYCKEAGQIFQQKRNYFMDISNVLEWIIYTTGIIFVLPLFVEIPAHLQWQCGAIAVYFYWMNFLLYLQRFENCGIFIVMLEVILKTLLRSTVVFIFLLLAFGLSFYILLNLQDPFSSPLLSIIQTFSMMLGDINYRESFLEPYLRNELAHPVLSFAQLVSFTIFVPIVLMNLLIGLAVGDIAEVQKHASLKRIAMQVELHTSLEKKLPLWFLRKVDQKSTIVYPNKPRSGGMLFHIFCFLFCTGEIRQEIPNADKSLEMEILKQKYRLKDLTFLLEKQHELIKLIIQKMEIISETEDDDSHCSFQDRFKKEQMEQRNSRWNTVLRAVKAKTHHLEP
Description: Immortalized HEK293T cells or human colonic fibroblast cells (CCD-18Co; ATCC) were used. HEK293T cells were plated on […] cover slips and transiently transfected with 10 μg of Trpa1b plasmid (pCMV-zTrpa1b-FLAG) (SEQ ID NO:3) and 5 μg of mNeonGreen cDNA (Allele Biotechnology), then grown in a 6 cm plate for 24-48 h. CCD-18Co were cultured in Eagle's minimal essential medium with 10% FBS, 1× penicillin and streptomycin. CCD-18Co cells were plated on 12 mm cover slips and transiently transfected with 5 μg of zTrpa1b plasmid (pCMV-zTrpa1b-FLAG) together with 5 μg of mNeonGreen cDNA (Allele Biotechnology), then grown in a […] plate for 48-72 h. After this time, the cover slips were transferred to a recording chamber containing an extracellular solution composed of 145 mM sodium gluconate, 4 mM KCl, 3 mM MgCl2, 10 mM D-glucose, 10 mM HEPES; pH 7.4 adjusted with NaOH. The internal solution contained 122 mM cesium methane sulfonate, 1.8 mM MgCl2, 9 mM EGTA, 14 mM creatine phosphate (sodium salt), 4 mM Mg-ATP, 0.3 mM Na-GTP, 10 mM HEPES, pH 7.2 adjusted with CsOH. […] Whole cell currents were measured on an Axopatch 200B amplifier (Molecular De-vices) under the control of pClamp software. […] Basal Trpa1b whole cell currents were measured with a ramp protocol (˜100 to +100 mV, at a holding potential of 0 mV). […] The p values were calculated using a two-tailed, paired Student's t-test.

human TRPA1 = target: T2, human TRPA1 (Homo sapiens, UniProt O75762); test: Rescue experiment, Trpa1b−/− embryos expressing hTRPA1 in Rohon-beard neurons; format: in vivo, zebrafish; conditions: 20 μM, motion within 5 s after 1 s WL3
T2 construct: 2A peptide (remnant stays on the channel) (C); EGFP (separated at the 2A site) (C, cleaved yes); expressed in transfected cells; host or cells: Rohon-Beard neurons of Trpa1b−/− zebrafish embryos, in vivo
T2 sequence (O75762 whole entry): as above
Description: For Trpa1b ohnolog and paralog rescue experiments, Trpa1b^−/− embryos were injected with ngn1:zTrpa1b-2A-mCherry (partial plasmid sequence in SEQ ID NO:5), ngn1:zTrpa1a-2A-mCherry, ngn1:hTRPA1-2A-EGFP or ngn1:mTRPA1-2A-mCherry at the 1-cell stage for mosaic Rohon-beard neuron expression. Embryos were screened at 2 dpf for fluorescent expression in Rohon-beard neurons, incubated with 20 μM TRPswitch-B for 1 hr and decapitated posterior to the eyes right before experiments. NA 0.25 5× objective and 1 s WL3 light illumination was used.
To test the potential cross activity of TRPswitch-B on the zebrafish ohnolog Trpa1a and on mammalian orthologs, zebrafish Trpa1a, mouse TRPA1 or human TRPA1 were transiently re-expressed in the Rohon-beard neurons of mutant Trpa1b^−/− zebrafish and performed light-induced motion response experiments in the presence of TRPswitch-B. Rescue experiments were performed in Trpa1b^−/− zebrafish with transient mosaic re-expression of zebrafish Trpa1b (zTrpa1b), zebrafish Trpa1a (zTrpa1a), mouse TRPA1 (mTRPA1) or human TRPA1 (hTRAP1) in Rohon-beard neurons. Embryos were pre-treated with 20 μM TRPswitch-B and decapitated right before light stimulation to eliminate the light response mediated by the retina (Table 5). […]

[1] = Photostationary state (PSS) determination; format: physicochemical
Source text: […] In the latter case, the pure Z isomer spectrum was estimated using methods described in previous publications.

[2] = Z→E thermal isomerisation kinetics; format: physicochemical
Description: In order to determine the Z→E thermal isomerisation kinetics in DMSO-d6 a ˜20 mM solution of the relevant compound was irradiated using a Luzchem LZC-4V photoreactor fitted with 12×8 W LZC-420 lamps (420 nm peak emission) until no further change was observable by ^1H NMR. For 30% water:DMSO samples, a 15 μM solution of the relevant compound was irradiated in a quartz cuvette using 365 nm LEDs (3×800 mW Nichia NCSU276A) until no further change was observed by UV-Vis spectroscopy. Compounds (˜25 μM solutions in DMSO) were treated analogously. In the case of compounds studied by NMR, the change in Z-isomer percentage was followed as a function of time through integration of the relevant peaks. […]
For data collected via ^1H NMR, the natural log of the Z isomer concentration was plotted against time to yield a straight line implying first order kinetics. The gradient of this line was used to determine the rate constant for Z→E conversion from which the thermal half-life could be calculated:
For data collected via UV-Vis Spectroscopy, absorbance data at a fixed wavelength was fitted using the following, first order equation: […]
where k represents the rate constant; A∞, A0 and At are the absorbances of the pure E-state, Z-rich state, and time t, respectively. […]

[3] = UV-Vis spectroscopy in 30% water:DMSO, extrapolated pure Z spectrum, listed as TRPswitch-B

Compound: Cc1nn(C)c(C)c1/N=N/c1ccc(NC(=O)c2cccs2)cc1NC(=O)c1cccs1 [Compound 9, (E)-N,N′-(4-((1,3,5-trimethyl-1H-pyrazol-4-yl)diazenyl)-1,3-phenylene)bis(thiophene-2-carboxamide)]
- light induced photocurrent / cross reaction with endogenous human TRPA1 (endogenous human TRPA1): does not cross react
- % response (human TRPA1): 0%
- 365 nm PSS (E-Z) ([1]; 1H NMR in DMSO-d6): 92% Z
- 420 nm PSS (E-Z) ([1]; 1H NMR in DMSO-d6): 55% Z
- 495 nm PSS (Z-E) ([1]; 1H NMR in DMSO-d6): 86% E
- Estimated 365 nm PSS (E-Z) [1, 3]: 92% Z
- Estimated 495 nm PSS (Z-E) [1, 3]: 100% E
- thermal half-lives [2]: long thermal half-lives
